Experimental data taken from patent US6576261B1, “Potentiation of inclusion complex formation of cyclodextrin derivatives” (priority 1999, dated 2003).
Where two headings read alike, the source gives them in different places.

Columns and labels:
Assay type in all cases: physicochemical
[1] = Solubility of TRIMEA and DIMEB and complex formation between the two hosts in absence of a guest
Description: TRIMEA and DIMEB dissolve in water more than 33 g per 100 ml of water. The solubilities of both these compounds in water can be decreased by the addition of salts or by an increase of temperature. Thus, in aqueous solution of sodium sulfate (1 M), TRIMEA dissolved to the saturation concentration just of 0.4 mg/ml and DIMEB to 3.4 mg/ml. […] If a 1:1 complex between TRIMEA and DIMEB is assumed to form, the association constant of 700 [1/M] can be estimated for that complex, which is of the same order of magnitude as association constants of many complexes formed of guests and cyclodextrins.

insulin = insulin (Homo sapiens, UniProt P01308); test: Stabilization and solubilization of insulin by highly methylated cyclodextrins; conditions: cyclodextrins at 2 or 4% in phosphate buffered solution, insulin 1 mg/ml, final pH less than 6
insulin, sequence (P01308 25-54 limits assumed, species assumed): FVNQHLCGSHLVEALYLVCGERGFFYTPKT
insulin, sequence (P01308 90-110 limits assumed, species assumed): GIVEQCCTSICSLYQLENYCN

[2] = Preparation and stabilization of colloidal compositions of calcium fluoride; conditions: alone or in combination with TRIMEA; precipitation from calcium chloride and sodium fluoride

| saturation concentration [1] [mg/mL] | preparation and stabilization of colloidal compositions of calcium fluoride [2] | saturation concentration ([1]; aqueous solution of sodium sulfate (1 M)) [mg/mL] | SMILES | stabilizer of the dissolved insulin (insulin) |
| --- | --- | --- | --- | --- |
| 0.4 | – | – | COC[C@H]1O[C@@H]2O[C@@H]3[C@@H](OC)[C@@H](OC)[C@@H](O[C@@H]4[C@@H](OC)[C@@H](OC)[C@@H](O[C@@H]5[C@@H](OC)[C@@H](OC)[C@@H](O[C@@H]6[C@@H](OC)[C@@H](OC)[C@@H](O[C@@H]7[C@@H](OC)[C@@H](OC)[C@@H](O[C@@H]1[C@@H](OC)[C@H]2OC)O[C@@H]7COC)O[C@@H]6COC)O[C@@H]5COC)O[C@@H]4COC)O[C@@H]3COC [TRIMEA] | more effective stabilizer of the dissolved insulin than DIMEB or TRIMEB |
| – | effective | 3.4 | COC[C@H]1O[C@@H]2O[C@H]3[C@H](O)[C@@H](OC)[C@@H](O[C@H]4[C@H](O)[C@@H](OC)[C@@H](O[C@H]5[C@H](O)[C@@H](OC)[C@@H](O[C@H]6[C@H](O)[C@@H](OC)[C@@H](O[C@H]7[C@H](O)[C@@H](OC)[C@@H](O[C@H]8[C@H](O)[C@@H](OC)[C@@H](O[C@H]1[C@H](O)[C@H]2OC)O[C@@H]8COC)O[C@@H]7COC)O[C@@H]6COC)O[C@@H]5COC)O[C@@H]4COC)O[C@@H]3COC [DIMEB] | – |
